The record followed here is US20240208901A1, “Deuterated 3,3'-Diselenodipropionic Acid (DSePA) and Its Use as an Anticancer or Radioprotective Agent” (Secretary, Department of Atomic Energy, priority 2022, published 2024).

In one assay the test system is WI-38 cells. Put plainly: Clonogenic assay in WI-38 cells. The class given is cell-based, human. Conditions: Homo sapiens, 168 h, seven days treatment, read-out: IC50 to inhibit growth (survival fraction). The procedure:
Further, clonogenic assay is considered as the gold standard method for evaluating the anticancer activity of any compound and is also a good indicator of the in vivo efficacy of any anticancer compound. Therefore, the therapeutic index of DSePA and D-DSePA in A549/WI-38 cells was also validated by employing the clonogenic assay. For this, A549/WI-38 cells were treated with the varying concentrations (0.1-2 μM)/(1-500 μM) of DSePA/D-DSePA for seven days and the survival fraction was calculated by counting the number of surviving clones (FIG. 11A). The plot of survival fraction verses the concentration of DScPA/D-DSCPA was used to estimate the IC50 of above compounds to inhibit the growth of A549/WI-38 cells. […] This clearly confirmed that deuteration of DScPA reduced its toxicity in normal cells without compromising its efficacy in cancer cells. […]
(§1) Clonogenic assay—Clonogenic assay was performed according to the method reported previously. […] After 7 days, colonies were fixed with absolute methanol for 5 min, stained with 0.5% crystal violet for 5 min, washed with distilled water to remove excess stain and counted manually under a stereo microscope. […] The plating efficiency and the survival fraction under irradiated and drug treated conditions were calculated using following formulae: […]
(§2) The plating efficiency of A549 and WI38 cells was calculated by seeding ˜300 and ˜500 cells respectively. […]

Another assay concerns A549 cells. Description: Clonogenic assay, combinatorial treatment with γ-irradiation in A549 cells. It is filed as cell-based, human. How it is done: Further, clonogenic assay is considered as the gold standard method for evaluating the anticancer activity of any compound and is also a good indicator of the in vivo efficacy of any anticancer compound. Therefore, the therapeutic index of DSePA and D-DSePA in A549/WI-38 cells was also validated by employing the clonogenic assay. For this, A549/WI-38 cells were treated with the varying concentrations (0.1-2 μM)/(1-500 μM) of DSePA/D-DSePA for seven days and the survival fraction was calculated by counting the number of surviving clones (FIG. 11A). The plot of survival fraction verses the concentration of DScPA/D-DSCPA was used to estimate the IC50 of above compounds to inhibit the growth of A549/WI-38 cells. […] This clearly confirmed that deuteration of DScPA reduced its toxicity in normal cells without compromising its efficacy in cancer cells. Since anticancer agents are intended to be used in combination with radiation, DSePA/D-DSePA at a treatment concentration of 0.5 μM (dose close to IC50 as determined by clonogenic assay) was combined with varying absorbed doses (2-8 Gy) of γ-irradiation and the effect of combinatorial treatment on the viability of A549 cells was determined by clonogenic assay (FIG. 12A & 12B). For this, A549 cells exposed to the varying absorbed doses (2-8 Gy) of γ-radiation were immediately treated with DScPA/D-DScPA and cultured for seven days prior to clonogenic assay. […] The D10 value of the combinatorial treatment involving DScPA estimated was 4.5 Gy (FIG. 12B). Similarly, D10 value of the combinatorial treatment involving D-DSePA estimated was 4 Gy. From these values, the dose modification factor (DMF or the ratio of the D10 of combinatorial treatment to that of D10 of radiation) of DScPA and D-DScPA estimated was 0.87±0.01 and 0.83±0.02 respectively. […] While the objective of radiotherapy is to achieve tumor control, it is also known to cause normal tissue toxicity. Previously, DSePA has been reported to protect normal cells from lethal effects of γ-radiation. Thus radio-protective activity of D-DSePA was compared with DScPA in terms of their abilities to protect non-cancerous lung fibroblast (WI-38) cells against γ-irradiation induced cell death. For this, WI-38 cells were pretreated with DSePA/D-DScPA for 24 h at an identical concentration of 0.5 μM (close to IC50 required to inhibit growth of A549 lung cancer cells by clonogenic assay) and then exposed to varying doses (2-12 Gy) of γ-irradiation. The survival of cells against radiation exposure was estimated by clonogenic assay and the dose response curve was prepared in the presence and absence of drug (DSePA/D-DScPA) (FIG. 12C & 12D). By using this dose response curve, the dose modification factor (DMF or the ratio of the D10 of radiation plus drug and D10 of radiation alone) of DSePA and D-DSePA estimated was 1.12±0.03 and 1.16±0.05 respectively.
as §1, §2

The term IC50 denotes the point on the concentration scale where inhibition reaches its midpoint. `O=C(O)CC[Se][Se]CCC(=O)O` [DSePA, 3,3′-diselenodipropionic acid]: the IC50 in the assay on WI-38 cells worked out at 17.9 ± 0.01 µM. Also, the “dose modification factor (DMF, D10 of combinatorial treatment / D10 of radiation)” value with A549 cells (0.5 μM drug immediately after γ-radiation (2-8 Gy)) came to 0.87±0.01. Also, the “D10 value (decimal reduction dose) of the combinatorial treatment” value in the assay on A549 cells (γ-radiation 2-8 Gy then 0.5 μM drug immediately, seven days, radiation alone D10 5 Gy) worked out at 4.5 Gy.
